Laboratory results from the supplement of paper PMC11061612.

Assays:
Test in all cases: Bliss excess, mean over the matrix (fraction); higher = more synergy
[1] = tested on: NCI-H1581 (Non-Small Cell Lung Carcinoma)
Outline: (§1)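 Cell lines grown in DMEM/F12 or RPMI with 10% FBS were plated in 1536-well plates and held 24 hours at 37°C, 5% CO2 before 72 hours of exposure to two-drug dose matrices, with DMSO typically at 0.2%. CellTiter-Glo 2.0 luminescence gave viability, which was converted to inhibition. Vehicle wells were set to 0 and blank wells to 1. Combination Emax is the second-highest inhibition in the matrix, and Bliss excess is the observed combination effect minus the expected EA + EB − EA·EB, where EA and EB are the single-agent effects.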

[2] = tested on: NCI-H2591 (Mesothelioma)
Outline: as §1

[3] = tested on: CAS-1 (Glioblastoma)
Outline: as §1

[4] = tested on: ARH-77 (Non-Cancerous)
Outline: as §1

[5] = tested on: A498 (Kidney Carcinoma)
Outline: as §1

[6] = tested on: 8-MG-BA (Glioblastoma)
Outline: as §1

[7] = tested on: TT2609-C02 (Thyroid Gland Carcinoma)
Outline: as §1

[8] = tested on: PANC-10-05 (Pancreatic Carcinoma)
Outline: as §1

[9] = tested on: MDST8 (Colorectal Carcinoma)
Outline: as §1

[10] = tested on: ONS-76 (Other Solid Carcinomas)
Outline: as §1

[11] = tested on: VCaP (Prostate Carcinoma)
Outline: as §1

[12] = tested on: IGR-37 (Melanoma)
Outline: as §1

[13] = tested on: COR-L311 (Small Cell Lung Carcinoma)
Outline: as §1

[14] = tested on: NCI-H64 (Small Cell Lung Carcinoma)
Outline: as §1

[15] = tested on: HCC1954 (Breast Carcinoma)
Outline: as §1

[16] = tested on: NY (Osteosarcoma)
Outline: as §1

[17] = tested on: CAL-29 (Bladder Carcinoma)
Outline: as §1

[18] = tested on: FU97 (Gastric Carcinoma)
Outline: as §1

[19] = tested on: PA-1 (Ovarian Carcinoma)
Outline: as §1

[20] = tested on: GI-ME-N (Neuroblastoma)
Outline: as §1

Structure (SMILES) | Bliss excess [1] | Bliss excess [2] | Bliss excess [3] | Bliss excess [4] | Bliss excess [5] | Bliss excess [6] | Bliss excess [7] | Bliss excess [8] | Bliss excess [9] | Bliss excess [10] | Bliss excess [11] | Bliss excess [12] | Bliss excess [13] | Bliss excess [14] | Bliss excess [15] | Bliss excess [16] | Bliss excess [17] | Bliss excess [18] | Bliss excess [19] | Bliss excess [20]
Cn1cnc2c(F)c(Nc3ccc(Br)cc3Cl)c(C(=O)NOCCO)cc21 [Selumetinib] + C[C@@H]1COCCN1C2=NC(=NC(=C2)C3(CC3)[S@](=N)(=O)C)C4=C5C=CNC5=NC=C4 [AZD6738] (first compound max 10 µM, 7x7, partner max 10 µM) | -0.0025 | 0.0292 | -0.0163 | 0.029 | -0.023 | -0.0051 | 0.0773 | -0.07 | 0.042 | -0.0914 | -0.0602 | -0.0122 | -0.056 | -0.0464 | -0.0327 | 0.0613 | 0.0155 | 0.0267 | 0.0267 | -0.0028
CC1(C)CCC(CN2CCN(c3ccc(C(=O)NS(=O)(=O)c4ccc(NCC5CCOCC5)c([N+](=O)[O-])c4)c(Oc4cnc5[nH]ccc5c4)c3)CC2)=C(c2ccc(Cl)cc2)C1 [Venetoclax] + C1CN(CCC1(C(=O)N[C@@H](CCO)C2=CC=C(C=C2)Cl)N)C3=NC=NC4=C3C=CN4 [Capivasertib] (first compound max 1 µM, 7x7, partner max 3 µM) | -0.041 | -0.0453 | -0.0653 | 0.054 | -0.121 | 0.0442 | -0.0391 | -0.0656 | -0.0389 | -0.114 | -0.026 | -0.0448 | -0.0022 | 0.0083 | 0.0021 | 0.0029 | -0.0319 | -0.0295 | -0.0541 | -0.0685
CC1(C)CCC(CN2CCN(c3ccc(C(=O)NS(=O)(=O)c4ccc(NCC5CCOCC5)c([N+](=O)[O-])c4)c(Oc4cnc5[nH]ccc5c4)c3)CC2)=C(c2ccc(Cl)cc2)C1 [Venetoclax] + C=CCn1c(=O)c2cnc(Nc3ccc(N4CCN(C)CC4)cc3)nc2n1-c1cccc(C(C)(C)O)n1 [AZD1775] (first compound max 1 µM, partner max 1 µM) | -0.009 | -0.0497 | 0.0375 | 0.025 | -0.0031 | -0.0307 | -0.0696 | -0.0488 | -0.0489 | 0.0043 | -0.0013 | 0.0267 | -0.104 | 0.0168 | -0.0366 | 0.0137 | -0.0167 | 0.0519 | 0.0034 | -0.0689
CC1(C)CCC(CN2CCN(c3ccc(C(=O)NS(=O)(=O)c4ccc(NCC5CCOCC5)c([N+](=O)[O-])c4)c(Oc4cnc5[nH]ccc5c4)c3)CC2)=C(c2ccc(Cl)cc2)C1 [Venetoclax] + CCN(CCO)CCCOc1ccc2c(Nc3cc(CC(=O)Nc4cccc(F)c4)[nH]n3)ncnc2c1 [AZD2811] (first compound max 1 µM, 7x7, partner max 1 µM) | -0.0024 | -0.009 | -0.0052 | 0.198 | -0.0503 | 0.0065 | -0.0276 | -0.0454 | -0.0011 | -0.0244 | 0.0436 | -0.011 | 0.0261 | 0.173 | 0.0579 | -0.0304 | 0.0361 | 0.024 | 0.0002 | -0.0202
CC1(C)CCC(CN2CCN(c3ccc(C(=O)NS(=O)(=O)c4ccc(NCC5CCOCC5)c([N+](=O)[O-])c4)c(Oc4cnc5[nH]ccc5c4)c3)CC2)=C(c2ccc(Cl)cc2)C1 [Venetoclax] + CN(C)CCCOc1ccc(-c2ccc3ncc4c(c3c2)n(C2CCOCC2)c(=O)n4C)cn1 [AZD0156] (first compound max 1 µM, 7x7, partner max 1 µM) | 0.0054 | -0.0202 | -0.0046 | 0.0357 | -0.029 | -0.0171 | -0.0351 | -0.079 | -0.038 | -0.054 | 0.032 | -0.0039 | 0.0654 | -0.0149 | 0.0044 | -0.0939 | -0.0219 | -0.0293 | 0.0367 | -0.041
CC1(C)CCC(CN2CCN(c3ccc(C(=O)NS(=O)(=O)c4ccc(NCC5CCOCC5)c([N+](=O)[O-])c4)c(Oc4cnc5[nH]ccc5c4)c3)CC2)=C(c2ccc(Cl)cc2)C1 [Venetoclax] + COc1cc(Nc2ncc3c(n2)-c2ccc(Cl)cc2C(c2c(F)cccc2OC)=NC3)ccc1C(=O)O [Alisertib] (first compound max 1 µM, 7x7, partner max 10 µM) | 0.0694 | -0.066 | -0.0341 | 0.278 | -0.0352 | 0.0038 | -0.0069 | -0.0602 | -0.0242 | -0.0478 | 0.0574 | -0.0148 | 0.0981 | 0.194 | 0.0356 | -0.0009 | -0.0554 | -0.0524 | 0.0385 | -0.094
CC1(C)CCC(CN2CCN(c3ccc(C(=O)NS(=O)(=O)c4ccc(NCC5CCOCC5)c([N+](=O)[O-])c4)c(Oc4cnc5[nH]ccc5c4)c3)CC2)=C(c2ccc(Cl)cc2)C1 [Venetoclax] + C[C@@H]1COCCN1C2=NC(=NC(=C2)C3(CC3)[S@](=N)(=O)C)C4=C5C=CNC5=NC=C4 [AZD6738] (first compound max 1 µM, 7x7, partner max 10 µM) | 0.007 | -0.0595 | -0.0068 | 0.0642 | -0.0459 | -0.0603 | -0.0293 | -0.113 | -0.0025 | -0.0531 | -0.0174 | 0.0453 | -0.0291 | -0.0054 | 0.0328 | -0.0597 | -0.018 | -0.0455 | -0.006 | -0.0353
CC1(C)CCC(CN2CCN(c3ccc(C(=O)NS(=O)(=O)c4ccc(NCC5CCOCC5)c([N+](=O)[O-])c4)c(Oc4cnc5[nH]ccc5c4)c3)CC2)=C(c2ccc(Cl)cc2)C1 [Venetoclax] + C[C@@H](Nc1cc(F)cc(F)c1)c1cc(C(=O)N(C)C)cc2c(=O)cc(N3CCOCC3)oc12 [AZD8186] (first compound max 1 µM, 7x7, partner max 3 µM) | 0.0121 | -0.0378 | -0.04 | 0.0649 | -0.043 | 0.0025 | -0.0251 | -0.0542 | -0.0304 | -0.025 | -0.0242 | -0.0335 | 0.0257 | 0.0288 | -0.0245 | 0.0226 | -0.0341 | -0.0019 | -0.0401 | -0.06
CC1(C)CCC(CN2CCN(c3ccc(C(=O)NS(=O)(=O)c4ccc(NCC5CCOCC5)c([N+](=O)[O-])c4)c(Oc4cnc5[nH]ccc5c4)c3)CC2)=C(c2ccc(Cl)cc2)C1 [Venetoclax] + Cc1cc2ncnn2cc1Nc1ncc2c(n1)n(C1CCOCC1)c(=O)n2C [AZD7648] (first compound max 1 µM, 7x7, partner max 10 µM) | 0.0081 | -0.0384 | -0.05 | 0.0245 | -0.0755 | -0.0139 | -0.0014 | -0.0721 | -0.0151 | -0.0499 | -0.0248 | 0.0149 | 0.0472 | -0.056 | -0.0034 | 0.0011 | -0.0222 | -0.0387 | -0.0014 | -0.0235
CC1(C)CCC(CN2CCN(c3ccc(C(=O)NS(=O)(=O)c4ccc(NCC5CCOCC5)c([N+](=O)[O-])c4)c(Oc4cnc5[nH]ccc5c4)c3)CC2)=C(c2ccc(Cl)cc2)C1 [Venetoclax] + Cn1cnc2c(F)c(Nc3ccc(Br)cc3Cl)c(C(=O)NOCCO)cc21 [Selumetinib] (first compound max 1 µM, 7x7, partner max 3 µM) | -0.0158 | -0.0169 | -0.035 | 0.0304 | 0.024 | -0.0216 | -0.0518 | -0.0386 | -0.0579 | -0.141 | -0.0082 | -0.0499 | -0.0367 | -0.0243 | 0.0025 | -0.0331 | -0.0137 | -0.0378 | -0.0117 | -0.0744
